According to the supplement of paper PMC11451515:

System: P12-Ichikawa
Test: cell viability relative to DMSO control; higher = less cytotoxic
Details: 48 h
Method in brief: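 NOMO1 or SEM (500 cells/well) or P12-Ichikawa (1000 cells/well) leukemia cells were adapted for at least four passages in each medium. They were seeded in 1536-well plates (5 μl) and pin-dosed with library compounds in DMSO over an 11-point threefold series, 47 μM to 0.79 nM. CellTiter-Glo One luminescence was read after 48 h at 37°C. Viability is the per-plate percentage relative to DMSO wells, with cell-free wells as background.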

[1] = HPLM + 10% dialyzed FBS, 0.000781 µM
[2] = HPLM + 10% dialyzed FBS, 0.00234 µM
[3] = HPLM + 10% dialyzed FBS, 0.00702 µM
[4] = HPLM + 10% dialyzed FBS, 0.0211 µM
[5] = HPLM + 10% dialyzed FBS, 0.0632 µM
[6] = HPLM + 10% dialyzed FBS, 0.19 µM
[7] = HPLM + 10% dialyzed FBS, 0.569 µM
[8] = HPLM + 10% dialyzed FBS, 1.71 µM
[9] = HPLM + 10% dialyzed FBS, 5.12 µM
[10] = HPLM + 10% dialyzed FBS, 15.4 µM
[11] = HPLM + 10% dialyzed FBS, 46.1 µM
[12] = RPMI 5 mM glucose + 10% dialyzed FBS, 0.000781 µM
[13] = RPMI 5 mM glucose + 10% dialyzed FBS, 0.00234 µM
[14] = RPMI 5 mM glucose + 10% dialyzed FBS, 0.00702 µM
[15] = RPMI 5 mM glucose + 10% dialyzed FBS, 0.0211 µM
[16] = RPMI 5 mM glucose + 10% dialyzed FBS, 0.0632 µM
[17] = RPMI 5 mM glucose + 10% dialyzed FBS, 0.19 µM
[18] = RPMI 5 mM glucose + 10% dialyzed FBS, 0.569 µM
[19] = RPMI 5 mM glucose + 10% dialyzed FBS, 1.71 µM
[20] = RPMI 5 mM glucose + 10% dialyzed FBS, 5.12 µM
[21] = RPMI 5 mM glucose + 10% dialyzed FBS, 15.4 µM
[22] = RPMI 5 mM glucose + 10% dialyzed FBS, 46.1 µM
[23] = RPMI 5 mM glucose + 10% FBS, 0.000781 µM
[24] = RPMI 5 mM glucose + 10% FBS, 0.00234 µM
[25] = RPMI 5 mM glucose + 10% FBS, 0.00702 µM
[26] = RPMI 5 mM glucose + 10% FBS, 0.0211 µM
[27] = RPMI 5 mM glucose + 10% FBS, 0.0632 µM
[28] = RPMI 5 mM glucose + 10% FBS, 0.19 µM
[29] = RPMI 5 mM glucose + 10% FBS, 0.569 µM
[30] = RPMI 5 mM glucose + 10% FBS, 1.71 µM
[31] = RPMI 5 mM glucose + 10% FBS, 5.12 µM
[32] = RPMI 5 mM glucose + 10% FBS, 15.4 µM
[33] = RPMI 5 mM glucose + 10% FBS, 46.1 µM

CC(C)C(=O)Nc1ncc(-c2cc(C(F)F)nn2-c2c(Cl)cccc2Cl)s1
cell viability [1]: 122% | cell viability [2]: 122% | cell viability [3]: 117% | cell viability [4]: 120% | cell viability [5]: 126% | cell viability [6]: 136% | cell viability [7]: 129% | cell viability [8]: 131% | cell viability [9]: 134% | cell viability [10]: 132% | cell viability [11]: 63.5%

Cc1cc(-c2nnc3n2CCCCC3)c(C)n1-c1ccccc1
cell viability [1]: 120% | cell viability [2]: 117% | cell viability [3]: 122% | cell viability [4]: 119% | cell viability [5]: 118% | cell viability [6]: 116% | cell viability [7]: 118% | cell viability [8]: 117% | cell viability [9]: 115% | cell viability [10]: 117% | cell viability [11]: 104% | cell viability [12]: 125% | cell viability [13]: 119% | cell viability [14]: 118% | cell viability [15]: 125% | cell viability [16]: 118% | cell viability [17]: 119% | cell viability [18]: 124% | cell viability [19]: 126% | cell viability [20]: 122% | cell viability [21]: 109% | cell viability [22]: 111%

O=[S+]([O-])(CCSSCC[S+](=O)([O-])[O][Na])[O][Na]
cell viability [1]: 105% | cell viability [2]: 110% | cell viability [3]: 114% | cell viability [4]: 124% | cell viability [5]: 121% | cell viability [6]: 124% | cell viability [7]: 129% | cell viability [8]: 120% | cell viability [9]: 126% | cell viability [10]: 123% | cell viability [11]: 129% | cell viability [23]: 97.4% | cell viability [24]: 111% | cell viability [25]: 107% | cell viability [26]: 111% | cell viability [27]: 121% | cell viability [28]: 116% | cell viability [29]: 133% | cell viability [30]: 132% | cell viability [31]: 124% | cell viability [32]: 119% | cell viability [33]: 118% | cell viability [12]: 108% | cell viability [13]: 133% | cell viability [14]: 119% | cell viability [15]: 127% | cell viability [16]: 134% | cell viability [17]: 127% | cell viability [18]: 134% | cell viability [19]: 126% | cell viability [20]: 130% | cell viability [21]: 139% | cell viability [22]: 133%

COc1cc(Nc2ncc(F)c(Nc3ccc4c(n3)N(COP(=O)(O)O)C(=O)C(C)(C)O4)n2)cc(OC)c1OC
cell viability [1]: 97% | cell viability [2]: 102% | cell viability [3]: 101% | cell viability [4]: 102% | cell viability [5]: 108% | cell viability [6]: 106% | cell viability [7]: 105% | cell viability [8]: 103% | cell viability [9]: 110% | cell viability [10]: 108% | cell viability [11]: 98.2% | cell viability [23]: 100% | cell viability [24]: 98.2% | cell viability [25]: 89.6% | cell viability [26]: 100% | cell viability [27]: 97.4% | cell viability [28]: 96.8% | cell viability [29]: 92.4% | cell viability [30]: 95.7% | cell viability [31]: 95.2% | cell viability [32]: 93.9% | cell viability [33]: 87.4% | cell viability [12]: 92.8% | cell viability [13]: 94.8% | cell viability [14]: 98.4% | cell viability [15]: 98% | cell viability [16]: 103% | cell viability [17]: 97.7% | cell viability [18]: 93.9% | cell viability [19]: 91.1% | cell viability [20]: 101% | cell viability [21]: 91.6% | cell viability [22]: 91.6%

COc1ccc(CC2c3cc(OC)c(OC)cc3CC[N+]2(C)CCC(=O)OCCCCCOC(=O)CC[N+]2(C)CCc3cc(OC)c(OC)cc3C2Cc2ccc(OC)c(OC)c2)cc1OC (configuration not stated)
cell viability [1]: 86.1% | cell viability [2]: 86.6% | cell viability [3]: 86.3% | cell viability [4]: 97.2% | cell viability [5]: 90.5% | cell viability [6]: 96.3% | cell viability [7]: 92% | cell viability [8]: 96.6% | cell viability [9]: 97.8% | cell viability [10]: 95.1% | cell viability [11]: 86.7% | cell viability [23]: 82.7% | cell viability [24]: 86.4% | cell viability [25]: 91.6% | cell viability [26]: 92.1% | cell viability [27]: 92.4% | cell viability [28]: 95.6% | cell viability [29]: 99.3% | cell viability [30]: 99.2% | cell viability [31]: 85.3% | cell viability [32]: 96.3% | cell viability [33]: 83.7% | cell viability [12]: 80.3% | cell viability [13]: 83.5% | cell viability [14]: 87.3% | cell viability [15]: 91.4% | cell viability [16]: 93.1% | cell viability [17]: 96.6% | cell viability [18]: 93.2% | cell viability [19]: 83.1% | cell viability [20]: 86.2% | cell viability [21]: 95.1% | cell viability [22]: 90.7%

NC(=O)c1cnc(-c2ccc(C3(N)CCC3)cc2)c(-c2ccccc2)c1
cell viability [23]: 118% | cell viability [24]: 126% | cell viability [25]: 115% | cell viability [26]: 111% | cell viability [27]: 115% | cell viability [28]: 134% | cell viability [29]: 121% | cell viability [30]: 116% | cell viability [31]: 111% | cell viability [32]: 80.4% | cell viability [33]: 67.9%

FC(F)(F)C1=CC=C2C(SCCCCCO\C3=C\O\C(CN4CCOCC4)=C/C3=O)=CC=NC2=C1
cell viability [1]: 107% | cell viability [2]: 122% | cell viability [3]: 123% | cell viability [4]: 120% | cell viability [5]: 129% | cell viability [6]: 126% | cell viability [7]: 132% | cell viability [8]: 123% | cell viability [9]: 123% | cell viability [10]: 107% | cell viability [11]: 88.1% | cell viability [23]: 110% | cell viability [24]: 119% | cell viability [25]: 109% | cell viability [26]: 114% | cell viability [27]: 113% | cell viability [28]: 109% | cell viability [29]: 125% | cell viability [30]: 121% | cell viability [31]: 111% | cell viability [32]: 94.4% | cell viability [33]: 66% | cell viability [12]: 112% | cell viability [13]: 118% | cell viability [14]: 113% | cell viability [15]: 116% | cell viability [16]: 130% | cell viability [17]: 116% | cell viability [18]: 127% | cell viability [19]: 119% | cell viability [20]: 115% | cell viability [21]: 104% | cell viability [22]: 78%

CN(C)CC[C@H](CSc1ccccc1)Nc1ccc([S+](=O)([O-])NC(=O)c2ccc(N3CCN(Cc4ccccc4-c4ccc(Cl)cc4)CC3)cc2)cc1[N+](=O)[O-]
cell viability [1]: 118% | cell viability [2]: 123% | cell viability [3]: 120% | cell viability [4]: 110% | cell viability [5]: 115% | cell viability [6]: 97.8% | cell viability [7]: 85.4% | cell viability [8]: 56.7% | cell viability [9]: 14.9% | cell viability [10]: 7.53% | cell viability [11]: 4.59% | cell viability [23]: 127% | cell viability [24]: 116% | cell viability [25]: 116% | cell viability [26]: 115% | cell viability [27]: 120% | cell viability [28]: 115% | cell viability [29]: 108% | cell viability [30]: 79.9% | cell viability [31]: 24.2% | cell viability [32]: 12.5% | cell viability [33]: 4.92% | cell viability [12]: 124% | cell viability [13]: 128% | cell viability [14]: 124% | cell viability [15]: 124% | cell viability [16]: 119% | cell viability [17]: 117% | cell viability [18]: 95.5% | cell viability [19]: 76.1% | cell viability [20]: 15.8% | cell viability [21]: 8.77% | cell viability [22]: 4.13%

COCCCOc1ccnc(C[S+]([O-])c2nc3ccccc3[nH]2)c1C (configuration not stated)
cell viability [1]: 107% | cell viability [2]: 116% | cell viability [3]: 109% | cell viability [4]: 105% | cell viability [5]: 121% | cell viability [6]: 113% | cell viability [7]: 123% | cell viability [8]: 119% | cell viability [9]: 125% | cell viability [10]: 113% | cell viability [11]: 117% | cell viability [23]: 114% | cell viability [24]: 109% | cell viability [25]: 117% | cell viability [26]: 106% | cell viability [27]: 112% | cell viability [28]: 125% | cell viability [29]: 135% | cell viability [30]: 130% | cell viability [31]: 120% | cell viability [32]: 131% | cell viability [33]: 119% | cell viability [12]: 105% | cell viability [13]: 105% | cell viability [14]: 114% | cell viability [15]: 105% | cell viability [16]: 134% | cell viability [17]: 132% | cell viability [18]: 131% | cell viability [19]: 113% | cell viability [20]: 115% | cell viability [21]: 123% | cell viability [22]: 121%
